Source: patent US4746349A, “Method and compositions for suppressing the nitrification of ammonium in plant growth medium” (American Cyanamid Company, priority 1986, dated 1988)
Where a name gives a salt, the structure may show the parent alone.

Assays:
[1] = test system: corn (Dekalb T2000, B73×LH 38); assay: Field evaluation: corn ear leaf tissue nitrogen, silt loam plots; assay type: in vivo; settings: for Corn Leaf Tissue Analysis (total N): ear leaf at silking
Text: (§1) Field Evaluation: Field evaluations are based on the N content of corn leaf tissue and grain yield utilizing two soil types. Replicate (4X) field plots are established at two different locations, one having (I) silt loam soil and one (II) with sandy loam soil. These soils had been previously cropped to non-fertilized corn to reduce the level of residual N. Maduramicin monoammonium salt is applied (0.25, 0.125, 0.07 ppm) with NH3 (84 or 168 kg N/ha) through a "downstream" by an injection system into silt loam plots. Nitrapyrin (0.25 ppm=0.56 kg a.i./ha), nitrogen checks, benzyl alcohol (1.16L/ha) (BA) and a O nitrogen check are included for comparison. Individual replicate plot sizes are 3.04M×22.8M (4, 76-cm corn rows×22.8M long) Anhydrous ammonia are injected on 76-cm centers.
(§2) Urea, treated or non-treated with Maduramicin monoammonium salt is broadcast on the surface of sandy loam plots. Plots are then planted with corn the day following treatment. Dekalb T2000 is planted 10 May on silt loam plots and Pioneer 3352 is planted 11 May in sandy loam plots.
(§3) Corn ear leaf tissues collected at silking on silt loam plots or 60 days post silking (on silt loam and sandy loam plots) are collected from each plot and assayed for total N (AOAC procedures). Grain yields are determined by harvesting the two center rows×15.2 m of each plot.

[2] = test system: corn (Dekalb T2000, B73×LH 38); assay: as above; assay type: in vivo; settings: inhibitor 0.11 kg/ha, ear leaf at silking
[3] = test system: corn (Dekalb T2000, B73×LH 38); assay: Field evaluation: yield of corn, silt loam location; assay type: in vivo
Text: as §1, §2, §3

[4] = test system: Nitrosomonas spp.; assay: Nitrification of ammonium in soil incubated at 25° C. (ammonium recovery, nitrate accumulation); settings: soil 25° C.; for Concentration of nitrate nitrogen / Recovery of Ammonium Nitrogen: 200 ppm N; for Effectiveness as nitrification inhibitor, in words: 20 weeks study
How it was run: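 Silt loam soil (100 g, low residual N) at 50% water saturation given ammonium sulfate at 200 ppm N plus test compound at 0.10–0.50 ppm, duplicates, incubated 25 °C for up to 20 weeks. Inorganic N extracted with 2M KCl; ammonium, nitrite and nitrate measured by steam distillation.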

[5] = test system: Nitrabacter; assay: Nitrite in ammonium amended field soil incubated at 38° C.; settings: soil 38° C.; for Nitrite, reported as nitrogen: 0.50 ppm, 200 ppm N
Procedure: Determination of Nitrification Inhibition of Soil amended with 200 ppm of nitrogen as ammonium sulfate and 0.5 ppm of Nitrapyrin or 0.5 ppm of Maduramicin, monoammonium salt.
Soil samples prepared as described in Example 1 above are incubated at 38° C. for 20 weeks. Samples are taken at intervals during the 20 week period, extracted with 2M KCl (10:1 v/w), and assayed for ammonium nitrite and nitrate by standard steam distillation methods.

`CO[C@@H]1[C@@H](OC)[C@H](C)[C@@](O)(CC(=O)O)O[C@H]1[C@H](C)[C@H]1O[C@@]2(CC[C@@](C)([C@H]3CC[C@@](C)([C@@H]4O[C@@H]([C@H]5O[C@](C)(O)[C@H](C)C[C@@H]5C)C[C@@H]4O[C@@H]4C[C@H](OC)[C@@H](OC)[C@H](C)O4)O3)O2)C[C@H](O)[C@H]1C` [Maduramicin monoammonium salt, Maduramicin] was tested, and the “Corn Leaf Tissue Analysis (total N)” value ([1]; inhibitor 0.28 kg/ha, NH3 84 kg N/ha) was 256 10^2 ug/g, the “Corn Leaf Tissue Analysis (total N)” value ([1]; inhibitor 0.28 kg/ha, NH3 168 kg N/ha) was 275 10^2 ug/g and the “Corn Leaf Tissue Analysis (total N)” value ([1]; inhibitor 0.56 kg/ha, NH3 84 kg N/ha) was 258 10^2 ug/g. For the same compound, the “Corn Leaf Tissue Analysis (total N)” value ([1]; inhibitor 0.56 kg/ha, NH3 168 kg N/ha) was 281 10^2 ug/g, the “More nitrogen in leaf tissue than control plots with similar nitrogen” value ([1]; silt loam plots) was 15-25% and the “Tissue N compared with nitrapyrin-treated plants, in words” value ([1]; three rates, silt loam plots) was “slightly higher than nitrapyrin-treated plants”. The “Corn Leaf Tissue Analysis (total N)” value ([2]; NH3 84 kg N/ha) was 257 10^2 ug/g, the “Corn Leaf Tissue Analysis (total N)” value ([2]; NH3 168 kg N/ha) was 268 10^2 ug/g and the “AVERAGE YIELD 4-REPLICATES” value ([3]; N 84 kg/ha, chemical 0.11 kg/ha) was 136.6 HECTOLITERS/HECTARE. The “AVERAGE YIELD 4-REPLICATES” value ([3]; N 84 kg/ha, chemical 0.28 kg/ha) was 129.6 HECTOLITERS/HECTARE, the “AVERAGE YIELD 4-REPLICATES” value ([3]; N 84 kg/ha, chemical 0.56 kg/ha) was 131.4 HECTOLITERS/HECTARE and the “AVERAGE YIELD 4-REPLICATES” value ([3]; N 168 kg/ha, chemical 0.11 kg/ha) was 154.0 HECTOLITERS/HECTARE. The “AVERAGE YIELD 4-REPLICATES” value ([3]; N 168 kg/ha, chemical 0.28 kg/ha) was 146.2 HECTOLITERS/HECTARE, the “AVERAGE YIELD 4-REPLICATES” value ([3]; N 168 kg/ha, chemical 0.56 kg/ha) was 147.9 HECTOLITERS/HECTARE and the “Effectiveness compared with 0.5 ppm nitrapyrin, in words” value ([4]; 0.10 ppm) was “not as effective as the 0.5 ppm rate of nitrapyrin”. For the same compound, the “Concentration of nitrate nitrogen” value ([4]; 0.10 ppm, week 0) was 18 PPM, the “Recovery of Ammonium Nitrogen” value ([4]; 0.10 ppm, week 0) was 195 PPM and the “Concentration of nitrate nitrogen” value ([4]; 0.10 ppm, week 1) was 20 PPM. The “Recovery of Ammonium Nitrogen” value ([4]; 0.10 ppm, week 1) was 168 PPM, the “Concentration of nitrate nitrogen” value ([4]; 0.10 ppm, week 2) was 19 PPM and the “Recovery of Ammonium Nitrogen” value ([4]; 0.10 ppm, week 2) was 178 PPM. The “Concentration of nitrate nitrogen” value ([4]; 0.10 ppm, week 4) was 24 PPM, the “Recovery of Ammonium Nitrogen” value ([4]; 0.10 ppm, week 4) was 176 PPM and the “Concentration of nitrate nitrogen” value ([4]; 0.10 ppm, week 7) was 75 PPM. The “Recovery of Ammonium Nitrogen” value ([4]; 0.10 ppm, week 7) was 125 PPM, the “Concentration of nitrate nitrogen” value ([4]; 0.10 ppm, week 9) was 59 PPM and the “Recovery of Ammonium Nitrogen” value ([4]; 0.10 ppm, week 9) was 110 PPM. The “Concentration of nitrate nitrogen” value ([4]; 0.10 ppm, week 12) was 152 PPM, the “Recovery of Ammonium Nitrogen” value ([4]; 0.10 ppm, week 12) was 55 PPM and the “Concentration of nitrate nitrogen” value ([4]; 0.10 ppm, week 16) was 153 PPM. The “Recovery of Ammonium Nitrogen” value ([4]; 0.10 ppm, week 16) was 67 PPM, the “Concentration of nitrate nitrogen” value ([4]; 0.10 ppm, week 20) was 134 PPM and the “Recovery of Ammonium Nitrogen” value ([4]; 0.10 ppm, week 20) was 39 PPM. For the same compound, the “Specific inhibition of nitrification through activity against Nitrosomonas spp., in words” value ([4]; 0.1 to 0.5 ppm) was “appear to specifically inhibit nitrification through activity against Nitrosomonas spp”, the “Concentration of nitrate nitrogen” value ([4]; 0.25 ppm, week 0) was 19 PPM and the “Recovery of Ammonium Nitrogen” value ([4]; 0.25 ppm, week 0) was 194 PPM. For the same compound, the “Concentration of nitrate nitrogen” value ([4]; 0.25 ppm, week 1) was 18 PPM, the “Recovery of Ammonium Nitrogen” value ([4]; 0.25 ppm, week 1) was 162 PPM and the “Concentration of nitrate nitrogen” value ([4]; 0.25 ppm, week 2) was 19 PPM. The “Recovery of Ammonium Nitrogen” value ([4]; 0.25 ppm, week 2) was 164 PPM, the “Concentration of nitrate nitrogen” value ([4]; 0.25 ppm, week 4) was 19 PPM and the “Recovery of Ammonium Nitrogen” value ([4]; 0.25 ppm, week 4) was 187 PPM. The “Concentration of nitrate nitrogen” value ([4]; 0.25 ppm, week 7) was 21 PPM, the “Recovery of Ammonium Nitrogen” value ([4]; 0.25 ppm, week 7) was 198 PPM and the “Concentration of nitrate nitrogen” value ([4]; 0.25 ppm, week 9) was 25 PPM. The “Recovery of Ammonium Nitrogen” value ([4]; 0.25 ppm, week 9) was 185 PPM, the “Concentration of nitrate nitrogen” value ([4]; 0.25 ppm, week 12) was 23 PPM and the “Recovery of Ammonium Nitrogen” value ([4]; 0.25 ppm, week 12) was 192 PPM. The “Concentration of nitrate nitrogen” value ([4]; 0.25 ppm, week 16) was 64 PPM, the “Recovery of Ammonium Nitrogen” value ([4]; 0.25 ppm, week 16) was 164 PPM and the “Concentration of nitrate nitrogen” value ([4]; 0.25 ppm, week 20) was 85 PPM. The “Recovery of Ammonium Nitrogen” value ([4]; 0.25 ppm, week 20) was 102 PPM, the “Time through which nitrification is delayed or inhibited” value ([4]; 0.5 ppm) was ≥ 20 weeks and the “Concentration of nitrate nitrogen” value ([4]; 0.50 ppm, week 0) was 18 PPM. For the same compound, the “Recovery of Ammonium Nitrogen” value ([4]; 0.50 ppm, week 0) was 194 PPM, the “Concentration of nitrate nitrogen” value ([4]; 0.50 ppm, week 1) was 20 PPM and the “Recovery of Ammonium Nitrogen” value ([4]; 0.50 ppm, week 1) was 162 PPM. The “Concentration of nitrate nitrogen” value ([4]; 0.50 ppm, week 2) was 18 PPM, the “Recovery of Ammonium Nitrogen” value ([4]; 0.50 ppm, week 2) was 166 PPM and the “Concentration of nitrate nitrogen” value ([4]; 0.50 ppm, week 4) was 21 PPM. For the same compound, the “Recovery of Ammonium Nitrogen” value ([4]; 0.50 ppm, week 4) was 170 PPM, the “Concentration of nitrate nitrogen” value ([4]; 0.50 ppm, week 7) was 21 PPM and the “Recovery of Ammonium Nitrogen” value ([4]; 0.50 ppm, week 7) was 194 PPM. The “Concentration of nitrate nitrogen” value ([4]; 0.50 ppm, week 9) was 25 PPM, the “Recovery of Ammonium Nitrogen” value ([4]; 0.50 ppm, week 9) was 193 PPM and the “Concentration of nitrate nitrogen” value ([4]; 0.50 ppm, week 12) was 18 PPM. The “Recovery of Ammonium Nitrogen” value ([4]; 0.50 ppm, week 12) was 189 PPM, the “Concentration of nitrate nitrogen” value ([4]; 0.50 ppm, week 16) was 28 PPM and the “Recovery of Ammonium Nitrogen” value ([4]; 0.50 ppm, week 16) was 209 PPM. The “Concentration of nitrate nitrogen” value ([4]; 0.50 ppm, week 20) was 44 PPM, the “Recovery of Ammonium Nitrogen” value ([4]; 0.50 ppm, week 20) was 175 PPM and the “Effectiveness as nitrification inhibitor, in words” value ([4]; X-14868A monammonium salt) was “most effective nitrification inhibitor”. The “Effectiveness as nitrification inhibitor, in words” value ([4]; X-14868 monoammonium salt) was “considerably more effective than nitrapyrin”, the “Activity against Nitrabacter, in words” value ([5]; 0.5 ppm) was “no activity” and the “Nitrite, reported as nitrogen” value ([5]; week 0) was 9 ppm. For the same compound, the “Nitrite, reported as nitrogen” value ([5]; week 1) was 8 ppm, the “Nitrite, reported as nitrogen” value ([5]; week 2) was 4 ppm and the “Nitrite, reported as nitrogen” value ([5]; week 4) was 3 ppm. The “Nitrite, reported as nitrogen” value ([5]; week 7) was -5 ppm, the “Nitrite, reported as nitrogen” value ([5]; week 9) was 9 ppm and the “Nitrite, reported as nitrogen” value ([5]; week 12) was 6 ppm. The “Nitrite, reported as nitrogen” value ([5]; week 16) was 19 ppm and the “Nitrite, reported as nitrogen” value ([5]; week 20) was 37 ppm.
